Laboratory results reported in paper PMC6792352, “Limited Chemical Structural Diversity Found to Modulate Thyroid Hormone Receptor in the Tox21 Chemical Library” (Environmental Health Perspectives, 2019).
Counter-ions that a name gives are not always drawn.

Assay: in vitro
Conditions: rat, gh3-tre-luc cells, AC50 (uM) modified / 1000

Structure (SMILES) | CC50 at 24 h [µM]
CCCCCCCCCCCBr [1-Bromoundecane] | > 50
CCC(=O)Oc1ccc(/C(CC)=C(\CC)c2ccc(OC(=O)CC)cc2)cc1 [Diethylstilbestrol dipropionate] | > 90
CC(=O)OC(c1ccccc1)C(Cl)(Cl)Cl (stereo not drawn) [2,2,2-Trichloro-1-phenylethyl acetate] | > 90
CN1COCN(Cc2cnc(Cl)s2)/C1=N/[N+](=O)[O-] [Thiamethoxam] | > 90
CC(=O)Oc1ccc(C(C)=O)cc1 [4-Acetylphenyl acetate] | > 100
CCCCS(=O)(=O)N[C@@H](Cc1ccc(OCCCCC2CCNCC2)cc1)C(=O)O [Tirofiban hydrochloride monohydrate] | > 50
CC(C)=CCC1=C(O)C(=O)c2ccccc2C1=O [Lapachol] | 10.7
COc1cc(C[C@H](C)N)c(OC)cc1Br [S-(+)-2,5-Dimethoxy-4-bromoamphetamine hydrochloride] | 61.8
CC1=C(/C=C/C(C)=C/C=C/C(C)=C\C=O)C(C)(C)CCC1 [13-cis-Retinal] | 45.2
CC(Oc1ccc(Cl)cc1Cl)C(=O)O (stereo not drawn) [Dichlorprop] | > 90
COc1ccc2c(c1OC)C(=O)O[C@@H]2[C@H]1c2c(cc3c(c2OC)OCO3)CCN1C [Noscapine] | 15
C=C(C)[C@@H]1CC=C(C)CC1 [(S)-Limonene] | > 90
CC(C(=O)O)c1ccc(C(=O)c2ccccc2)s1 (stereo not drawn) [Tiaprofenic acid] | > 20
COC(C)(C)CC(C)=O [4-Methoxy-4-methyl-2-pentanone] | > 90
Nc1c(Cl)cc(Cl)cc1Cl [2,4,6-Trichloroaniline] | > 90
C=CC(C)(O)CC/C=C(/C)CCC=C(C)C (stereo not drawn) [cis-Nerolidol] | > 90
C#C[C@]1(O)CC[C@H]2[C@@H]3[C@H](C)CC4=C(CCC(=O)C4)[C@H]3CC[C@@]21C [Tibolone] | 51.8
C=C(C)C(=O)OCCOCCOCCOCCOC(=O)C(=C)C [Tetraethyleneglycol dimethacrylate] | > 90
CC(C)[C@H](Nc1ccc(C(F)(F)F)cc1Cl)C(=O)OC(C#N)c1cccc(Oc2ccccc2)c1 (stereo partly drawn) [Fluvalinate] | > 90
S=P(N1CC1)(N1CC1)N1CC1 [Thiotepa] | > 100
NCCO/C=C/[C@H](N)C(=O)O [Aviglycine hydrochloride] | > 50
CCCCCCCCCCCCCCO [1-Tetradecanol] | > 90

Structure (SMILES) | CC50 at 24 h [µM]
C1COC(NC(C2CC2)C2CC2)=N1 [Rilmenidine] | > 50
OCCCO [1,3-Propanediol] | > 200
CCCCCCCCOC(=O)c1ccc(C(=O)OCCCCCCCC)c(C(=O)OCCCCCCCC)c1 [Trioctyl trimellitate] | > 90
Cc1ccc(S(=O)(=O)NC(=O)N[C@@H](C)Cc2ccccc2)cc1 [Tosifen] | > 50
CC(C)(C)NCC(O)c1ccc(O)c(CO)n1 (stereo not drawn) [Pirbuterol hydrochloride] | > 50
CCNCC [Diethylamine] | > 100
COC(=O)C1=C(C)NC(C)=C(C(=O)OCCCN2CCC(c3ccccc3)(c3ccccc3)CC2)C1c1cccc([N+](=O)[O-])c1 (racemic) [(+/-) -Niguldipine hydrochloride (1:x)] | 12.3
Cc1c(Cl)cccc1[N+](=O)[O-] [1-Chloro-2-methyl-3-nitrobenzene] | > 90
CC(C)(O)C(Cl)(Cl)Cl [1,1,1-Trichloro-2-methyl-2-propanol] | > 50
O=C(O)c1ccc2[nH]cc(CCCCN3CC=C(c4ccccc4)CC3)c2c1 [Carmoxirole] | > 50
Cc1cccc(C)c1NC(=O)CN1CCCCCC1 [Pincainide] | > 50
CC(Oc1ccccc1)C(=O)N[C@@H]1C(=O)N2[C@@H]1SC(C)(C)[C@@H]2C(=O)O (stereo partly drawn) [Phenethicillin potassium] | > 20
CSCc1cnccn1 [(Methylthio)methylpyrazine] | > 200
CC(C)(C)Cl [t-Butylchloride] | > 100
O=C(O)C1=NN(c2ccc(S(=O)(=O)O)cc2)C(=O)C1 [Sodium 5-oxo-1-(4-sulfophenyl)-4,5-dihydro-1H-pyrazole-3-carboxylate] | > 90
Nc1cc(S(=O)(=O)O)ccc1O [2-Amino-1-phenol-4-sulfonic acid] | > 90
O=[N+]([O-])c1ccc(O/N=C/c2cc(Br)c(O)c(Br)c2)c([N+](=O)[O-])c1 [Bromofenoxim] | 26
CCOC(=N)CC(=O)OCC [Ethyl 3-ethoxy-3-iminopropionate hydrochloride] | > 90
CC(C)CCCCCCOC(=O)C1CCCCC1C(=O)OCCCCCCC(C)C (stereo not drawn) [Diisononyl cyclohexane-1,2-dicarboxylate] | > 90
COc1ccc(N)cc1N [2,4-Diaminoanisole sulfate] | 24.6
O=C1c2ccccc2C(=O)c2c(O)ccc(O)c21 [1,4-Dihydroxyanthracene-9,10-dione] | > 90
C[C@H]1c2cccc(O)c2C(=O)C2=C(O)[C@]3(O)C(=O)C(C(N)=O)=C(O)[C@@H](N(C)C)[C@@H]3[C@@H](O)[C@@H]21 [Doxycycline hydrochloride] | > 50

Structure (SMILES) | CC50 at 24 h [µM]
NCC[C@H](O)C(=O)N[C@@H]1C[C@H](N)[C@@H](O[C@H]2O[C@H](CN)CC[C@H]2N)[C@H](O)[C@H]1O[C@H]1O[C@H](CO)[C@@H](O)[C@H](N)[C@H]1O [Arbekacin sulfate] | > 50
CC1=CCCC(C)(C)C12CCC(C)O2 (stereo not drawn) [Theaspirane] | > 90
COC(=O)c1ccc(O)cc1 [Methylparaben] | > 90
OC1CCCCC1 [Cyclohexanol] | > 100
OC[C@H]1O[C@@H](O[C@H]2[C@H](O)[C@@H](O)C(O)O[C@@H]2CO)[C@H](O)[C@@H](O)[C@H]1O (stereo partly drawn) [Lactose] | > 90
CCCC(=O)OCCC(C)CCC=C(C)C (stereo not drawn) [Citronellyl butyrate] | > 90
NC(=O)Nc1nc2ccccc2[nH]1 [2-Benzimidazolylurea] | > 90
CC(=O)O[C@H]1C[C@@H]2CC[C@@H]3[C@H](CC[C@@]4(C)[C@H]3C[C@H]([N+]3(C)CCCCC3)[C@@H]4OC(C)=O)[C@@]2(C)C[C@@H]1[N+]1(C)CCCCC1 [Pancuronium bromide] | > 50
O=CCCCC=O [Glutaraldehyde] | > 90
OCCCCCO [1,5-Pentanediol] | > 100
CC/C=C\CCOC(=O)c1ccccc1 [(3Z)-Hex-3-en-1-yl benzoate] | > 90
Cc1cccc2cccnc12 [8-Methylquinoline] | > 90
O=C(O)[C@@H](O)[C@H](O)[C@H](O)[C@@H](O)C(=O)O [Mucic acid] | > 50
Clc1ccc(COC(Cn2ccnc2)c2ccc(Cl)cc2Cl)c(Cl)c1 (stereo not drawn) [Miconazole] | 15
NCCc1ccc(O)cc1 [Tyramine hydrochloride] | > 90
c1ccc(-c2ccccc2)cc1 [Biphenyl] | > 90
CCCCCCCC/C=C\CCCCCCCCN [(Z)-9-Octadecenylamine] | > 50
CCn1ccnc1CC1COc2ccccc2O1 (stereo not drawn) [Imiloxan] | > 50
CN1CCN(C(c2ccccc2)c2ccccc2)CC1 [Cyclizine hydrochloride] | > 20
COc1cc(NS(=O)(=O)c2ccc(N)cc2)ncn1 [Sulfamonomethoxine] | > 20

Same assay, conditions: rat, gh3-tre-luc cells, AC50 (uM) modified / 1000, Tox21_110001=Tox21_110122; viability, 1 nM T3 present, 24 h

Structure (SMILES) | CC50 at 24 h [µM]
CCCC(C)(COC(N)=O)COC(=O)NC(C)C (stereo not drawn) [Carisoprodol] | > 50

Same assay, conditions: rat, gh3-tre-luc cells, AC50 (uM) modified / 1000, Tox21_110001=Tox21_112623; viability, 1 nM T3 present, 24 h

Structure (SMILES) | CC50 at 24 h [µM]
CC(C)=CC1C(C(=O)OCN2C(=O)C3=C(CCCC3)C2=O)C1(C)C (stereo not drawn) [Tetramethrin] | > 50

Same assay, conditions: rat, gh3-tre-luc cells, AC50 (uM) modified / 1000, Tox21_110001=Tox21_200578; viability, 1 nM T3 present, 24 h

Structure (SMILES) | CC50 at 24 h [µM]
CCN [Ethylammonium nitrate] | > 90

Same assay, conditions: rat, gh3-tre-luc cells, AC50 (uM) modified / 1000, Tox21_110001=Tox21_200619; viability, 1 nM T3 present, 24 h

Structure (SMILES) | CC50 at 24 h [µM]
CCCBr [1-Bromopropane] | > 90

Same assay, conditions: rat, gh3-tre-luc cells, AC50 (uM) modified / 1000, Tox21_110001=Tox21_200623; viability, 1 nM T3 present, 24 h

Structure (SMILES) | CC50 at 24 h [µM]
CCCC(C)(COC(N)=O)COC(=O)NC(C)C (stereo not drawn) [Carisoprodol] | > 90

Same assay, conditions: rat, gh3-tre-luc cells, AC50 (uM) modified / 1000, Tox21_110001=Tox21_201295; viability, 1 nM T3 present, 24 h

Structure (SMILES) | CC50 at 24 h [µM]
COC(=O)Nc1cccc(OC(=O)Nc2cccc(C)c2)c1 [Phenmedipham] | > 90

Same assay, conditions: rat, gh3-tre-luc cells, AC50 (uM) modified / 1000, Tox21_110001=Tox21_201798; viability, 1 nM T3 present, 24 h

Structure (SMILES) | CC50 at 24 h [µM]
O=P(OCC(Br)CBr)(OCC(Br)CBr)OCC(Br)CBr (stereo not drawn) [Tris(2,3-dibromopropyl) phosphate] | 30.4

Same assay, conditions: rat, gh3-tre-luc cells, AC50 (uM) modified / 1000, Tox21_110001=Tox21_201911; viability, 1 nM T3 present, 24 h

Structure (SMILES) | CC50 at 24 h [µM]
ClC1=C(Cl)C2(Cl)C3C(Cl)C=CC3C1(Cl)C2(Cl)Cl (stereo not drawn) [Heptachlor] | 37.8

Same assay, conditions: rat, gh3-tre-luc cells, AC50 (uM) modified / 1000, Tox21_110001=Tox21_300534; viability, 1 nM T3 present, 24 h

Structure (SMILES) | CC50 at 24 h [µM]
ClC1=C(Cl)C2(Cl)C3C(Cl)C=CC3C1(Cl)C2(Cl)Cl (stereo not drawn) [Heptachlor] | 42.6

Same assay, conditions: rat, gh3-tre-luc cells, AC50 (uM) modified / 1000, Tox21_110001=Tox21_300586; viability, 1 nM T3 present, 24 h

Structure (SMILES) | CC50 at 24 h [µM]
ClC1=C(Cl)[C@]2(Cl)C3C(Cl)C(Cl)CC3[C@@]1(Cl)C2(Cl)Cl (stereo partly drawn) [Chlordane] | 25.5

Same assay, conditions: rat, gh3-tre-luc cells, AC50 (uM) modified / 1000, Tox21_110001=Tox21_300592; viability, 1 nM T3 present, 24 h

Structure (SMILES) | CC50 at 24 h [µM]
ClC1(Cl)C2(Cl)C3(Cl)C4(Cl)C(Cl)(Cl)C5(Cl)C3(Cl)C1(Cl)C5(Cl)C24Cl (stereo not drawn) [Mirex] | > 90

Same assay, conditions: rat, gh3-tre-luc cells, AC50 (uM) modified / 1000, Tox21_110001=Tox21_301017; viability, 1 nM T3 present, 24 h

Structure (SMILES) | CC50 at 24 h [µM]
CC(C)=CC1C(C(=O)OCN2C(=O)C3=C(CCCC3)C2=O)C1(C)C (stereo not drawn) [Tetramethrin] | > 90

Same assay, conditions: rat, gh3-tre-luc cells, AC50 (uM) modified / 1000, Tox21_110001=Tox21_301356; viability, 1 nM T3 present, 24 h

Structure (SMILES) | CC50 at 24 h [µM]
CCSCc1ccccc1OC(=O)NC [Ethiofencarb] | > 90

Same assay, conditions: rat, gh3-tre-luc cells, AC50 (uM) modified / 1000, Tox21_110001=Tox21_302967; viability, 1 nM T3 present, 24 h

Structure (SMILES) | CC50 at 24 h [µM]
O=P(OCC(Br)CBr)(OCC(Br)CBr)OCC(Br)CBr (stereo not drawn) [Tris(2,3-dibromopropyl) phosphate] | 54.5
